According to ChEMBL document CHEMBL1151497, “Design, synthesis and antiproliferative activity of methyl 4-Iodo-1--D-ribofuranosyl-pyrazole-3-carboxylate and related compounds” (Bioorg Med Chem Lett, 1996):

Experiments:
Format in all cases: functional, cell-based
WIL2-NS = assay: Compound was tested for its effect on the proliferation of WIL-2-NS cell line.; conditions: Homo sapiens
MT4 [1] = assay: Compound was tested for its effect on the proliferation of MT-4 cells expressing the TAT gene of HTLV-1.; conditions: Homo sapiens
L1210 = assay: Compound was tested for its effect on the proliferation of L1210 murine leukemia cell line.; conditions: Mus musculus
ACHN = assay: Compound was tested for its effect on the proliferation of ACHN human kidney adenocarcinoma
HEL 299 = assay: Compound was tested for its effect on the proliferation of […] human diploid embryonal lung cell line.
CCRF-CEM [2] = assay: Compound was tested for its effect on the proliferation of CCRF-CEM human lymphoblastic T-leukemia cell line
HT-29 = assay: Compound was tested for its effect on the proliferation of HT-29 human colon adenocarcinoma.
CHO-K1 = assay: Compound was tested for its effect on the proliferation of CHO-K1 Chinese hamster ovary cell line.; conditions: Cricetulus griseus
CCRF-SB = assay: Compound was tested for its effect on the proliferation of CCRF-SB human lymphoblastic B-leukemia cell line.
MOLT-4 = assay: Compound was tested for its effect on the proliferation of MOLT-4 human lymphoblastic T-leukemia cell line.
Raji = assay: Compound was tested for its effect on the proliferation of RAJI burkitt lymphoma cell line.; conditions: Homo sapiens
C8166 = assay: Compound was tested for its effect on the proliferation of C8166 cells expressing the TAT gene of HTLV-1.; conditions: Homo sapiens
MT4 [3] = assay: Dose required to achieve 50% protection of MT-4 cells against the cytopathic effect of HIV-1; conditions: Homo sapiens
CCRF-CEM [4] = assay: Compound was tested for its effect on the proliferation of CCRF-CEM human lymphoblastic T-leukemia cell line.

`COC(=O)c1ncn([C@@H]2O[C@H](CO)[C@@H](O)[C@H]2O)n1` gave an IC50 (WIL2-NS) of over 300 µM, an IC50 (MT4 [1]) of over 300 µM and an IC50 (L1210) of over 300 µM. It also gave an IC50 (ACHN) of over 300 µM, an IC50 (HEL 299) of over 300 µM and an IC50 (CCRF-CEM [2]) of over 300 µM. For the same molecule, the IC50 (HT-29) was over 300 µM, the IC50 (CHO-K1) was over 300 µM and the IC50 (CCRF-SB) was over 300 µM. The IC50 (MOLT-4) was over 300 µM and the IC50 (Raji) was over 300 µM.
In the case of `COc1cccc2c1C(=O)c1c(O)c3c(c(O)c1C2=O)C[C@@](O)(C(=O)CO)C[C@@H]3O[C@H]1C[C@H](N)[C@H](O)[C@H](C)O1` [DOXORUBICIN], the IC50 (WIL2-NS) is reported as 0.2 µM, the IC50 (C8166) is reported as 0.05 µM and the IC50 (MT4 [1]) is reported as 0.05 µM. For the same molecule, the IC50 (L1210) was 0.9 µM, the IC50 (ACHN) was 0.7 µM and the IC50 (HEL 299) was 1.7 µM. It also gave an IC50 (CCRF-CEM [2]) of 0.08 µM, an IC50 (HT-29) of 1.1 µM and an IC50 (CHO-K1) of 1.2 µM. The IC50 (CCRF-SB) was 0.05 µM, the IC50 (MOLT-4) was 0.05 µM and the IC50 (Raji) was 0.1 µM.
Work on `COC(=O)c1nn([C@@H]2O[C@H](CO)[C@@H](O)[C@H]2O)cc1I.Cc1cn([C@H]2C[C@H](N=[N+]=[N-])[C@@H](CO)O2)c(=O)[nH]c1=O` yielded an EC50 (MT4 [3]) of 5 nM.
`COC(=O)c1nn([C@@H]2O[C@H](CO)[C@@H](O)[C@H]2O)cc1I.OC[C@@H]1CC[C@H](n2cnc3c(O)ncnc32)O1` was tested, and the EC50 (MT4 [3]) was 3000 nM.
In the case of `COC(=O)c1nn([C@@H]2O[C@H](CO)[C@@H](O)[C@H]2O)cc1I`, the IC50 (WIL2-NS) is reported as 1.6 µM, the IC50 (C8166) is reported as 0.2 µM and the IC50 (MT4 [1]) is reported as 1.6 µM. For the same molecule, the IC50 (L1210) was 2.4 µM, the IC50 (ACHN) was 3.6 µM and the IC50 (HEL 299) was 4 µM. The IC50 (CCRF-CEM [2]) was 1.5 µM, the IC50 (HT-29) was 2.8 µM and the IC50 (CHO-K1) was 7.9 µM. The IC50 (CCRF-SB) was 0.9 µM, the IC50 (MOLT-4) was 0.9 µM and the IC50 (Raji) was 0.2 µM.
Work on `NC(=O)c1nn([C@@H]2O[C@H](CO)[C@@H](O)[C@H]2O)cc1I` yielded an IC50 (WIL2-NS) of over 300 µM, an IC50 (C8166) of 4 µM and an IC50 (MT4 [1]) of 2.1 µM. For the same molecule, the IC50 (L1210) was over 300 µM, the IC50 (ACHN) was over 300 µM and the IC50 (HEL 299) was over 300 µM. It also gave an IC50 (HT-29) of over 300 µM, an IC50 (CHO-K1) of over 300 µM and an IC50 (CCRF-SB) of over 300 µM. For the same molecule, the IC50 (MOLT-4) was 9.1 µM, the IC50 (CCRF-CEM [4]) was 2400 nM and the IC50 (Raji) was over 300 µM.
Work on `Cc1noc(-c2nn([C@@H]3O[C@H](CO)[C@@H](O)[C@H]3O)cc2I)n1` yielded an IC50 (WIL2-NS) of 3.5 µM, an IC50 (MT4 [1]) of 2.3 µM and an IC50 (ACHN) of 6.2 µM. It also gave an IC50 (HEL 299) of 7.9 µM, an IC50 (CCRF-CEM [2]) of 2.6 µM and an IC50 (HT-29) of 4.8 µM. It also gave an IC50 (CHO-K1) of 8.5 µM, an IC50 (CCRF-SB) of 2.8 µM and an IC50 (MOLT-4) of 3 µM.
With `Cc1cn([C@H]2C[C@H](N=[N+]=[N-])[C@@H](CO)O2)c(=O)[nH]c1=O` [ZIDOVUDINE] the EC50 (MT4 [3]) was 2 nM.
For `NC(=O)c1ncn([C@@H]2O[C@H](CO)[C@@H](O)[C@H]2O)n1` [RIBAVIRIN], the IC50 (WIL2-NS) was over 100 µM, the IC50 (C8166) was over 100 µM and the IC50 (MT4 [1]) was 23 µM. It also gave an IC50 (L1210) of 16.6 µM, an IC50 (ACHN) of over 100 µM and an IC50 (HEL 299) of 45 µM. It also gave an IC50 (CCRF-CEM [2]) of 19 µM, an IC50 (CHO-K1) of 50 µM and an IC50 (CCRF-SB) of over 100 µM. For the same molecule, the IC50 (MOLT-4) was 5.7 µM and the IC50 (Raji) was 56 µM.
`COC(=O)c1csc([C@@H]2O[C@H](CO)[C@@H](O)[C@H]2O)n1` gave an IC50 (WIL2-NS) of over 300 µM, an IC50 (MT4 [1]) of over 300 µM and an IC50 (L1210) of over 300 µM. The IC50 (ACHN) was over 300 µM, the IC50 (HEL 299) was over 300 µM and the IC50 (CCRF-CEM [2]) was over 300 µM. It also gave an IC50 (HT-29) of over 300 µM, an IC50 (CHO-K1) of over 300 µM and an IC50 (CCRF-SB) of over 300 µM. For the same molecule, the IC50 (MOLT-4) was over 300 µM and the IC50 (Raji) was over 300 µM.
Work on `O=C(O)c1nn([C@@H]2O[C@H](CO)[C@@H](O)[C@H]2O)cc1I` yielded an IC50 (WIL2-NS) of over 300 µM, an IC50 (C8166) of over 300 µM and an IC50 (MT4 [1]) of over 300 µM. It also gave an IC50 (L1210) of over 300 µM, an IC50 (ACHN) of over 300 µM and an IC50 (HEL 299) of over 300 µM. It also gave an IC50 (CCRF-CEM [2]) of over 300 µM, an IC50 (HT-29) of over 300 µM and an IC50 (CHO-K1) of over 300 µM. For the same molecule, the IC50 (CCRF-SB) was over 300 µM, the IC50 (MOLT-4) was over 300 µM and the IC50 (Raji) was over 300 µM.
`C#Cc1cn([C@@H]2O[C@H](CO)[C@@H](O)[C@H]2O)nc1C(N)=O` gave an IC50 (WIL2-NS) of over 300 µM, an IC50 (C8166) of 22 µM and an IC50 (MT4 [1]) of over 300 µM. The IC50 (L1210) was over 300 µM, the IC50 (ACHN) was 287 µM and the IC50 (HEL 299) was 235 µM. It also gave an IC50 (CCRF-CEM [2]) of over 300 µM, an IC50 (HT-29) of over 300 µM and an IC50 (CHO-K1) of over 300 µM. It also gave an IC50 (CCRF-SB) of over 300 µM, an IC50 (MOLT-4) of over 300 µM and an IC50 (Raji) of over 300 µM.
For `CCCCOC(=O)c1nn([C@@H]2O[C@H](CO)[C@@H](O)[C@H]2O)cc1I`, the IC50 (WIL2-NS) was 23 µM, the IC50 (C8166) was 15 µM and the IC50 (MT4 [1]) was 25 µM. It also gave an IC50 (HEL 299) of 40 µM, an IC50 (CCRF-CEM [2]) of 19 µM and an IC50 (HT-29) of 25 µM. It also gave an IC50 (CHO-K1) of 37 µM, an IC50 (CCRF-SB) of 21 µM and an IC50 (MOLT-4) of 16 µM. It also gave an IC50 (Raji) of 17 µM.
